In brackets after ≈: the same amount, converted by molar mass.
How the values were obtained:
L. delbrueckii [1] = assay: microtitre plate-based growth assay, cell number (Table 3); design: species or system L. delbrueckii BCRC 14008
Experimental: (§1) Three Lactobacillus strains, L. rhamnosus BCRC 10940, L. paracasei BCRC 14001, L. delbrueckii BCRC 14008, were purchased from the FIRDI, which were cultured in MRS w/o agar medium (Difco) and stored at 4° C. To activate the bacteria, the cells were inoculated in MRS medium at a concentration of 5% (v/v) and cultured at 37° C. for 24 hours, and then 10^7 cells/ml of each of the three Lactobacillus strains was inoculated in 5 ml of MRS medium with shaking overnight.
(§2) Antimicrobial activity of antibiotics against the three Lactobacillus strains was measured by a microtitre plate-based method. […] 10 μl of activated bacterial cultures was added to each well to achieve a concentration of 10^5 cfu/ml per well, and the plates were incubated at 37° C. for 24 h. The growth of the bacteria was measured by absorbance at 600 nm and the survival percentages were determined. Further, the minimal inhibitory concentration (MIC) was determined as the lowest concentration of the antibiotics allowing no visible growth of the bacteria. Data are the averages of a triplicate experiment.
(§3) On the other hand, the fermented soy extract prepared of the invention as in Example 1 was analyzed for its prebiotic activity to support the growth of beneficial bacteria using the microtitre plate-based method as described above. The fermented soy extract of the invention was added at a concentration of 5% into the wells and the plates were incubated at 37° C. for 48 h. The cell number was counted.

[2] = tested on: Lactobacillus strains (L. rhamnosus BCRC 10940, L. paracasei BCRC 14001, L. delbrueckii BCRC 14008); assay: antimicrobial activity (MIC), microtitre plate-based method; format: cell-based; settings: 10^5 cfu/ml, 37° C., 24 h, MRS medium, triplicate; read-out: minimal inhibitory concentration (MIC)
Experimental: as §1, §2

L. paracasei [3] = assay: microtitre plate-based growth assay, cell number (Table 3); design: species or system L. paracasei BCRC 14001
Experimental: as §1, §2, §3

L. rhamnosus [4] = assay: as above; design: species or system L. rhamnosus BCRC 10940
Experimental: as §1, §2, §3

L. paracasei [5] = assay: simultaneous treatment of antibiotics and fermented soy extract, survival counting; format: cell-based; settings: FSE 5% where added, 48 h
Experimental: as §1
(§4) The plates were incubated at 37° C. for 48 h.

L. delbrueckii [6] = assay: as above; format: cell-based; settings: FSE 5% where added, 48 h
Experimental: as §1, §4

L. rhamnosus [7] = assay: as above; format: cell-based; settings: FSE 5% where added, 48 h
Experimental: as §1, §4

CC1(C)S[C@@H]2[C@H](NC(=O)[C@H](N)c3ccc(O)cc3)C(=O)N2[C@H]1C(=O)O [AMO, amoxicillin]
cell number L. delbrueckii (L. delbrueckii [1]; antibiotic 2 μg): 5.00 × 10^4
MIC [2]: 3.6 µg/mL (≈ 9.85 µM)
cell number L. paracasei (L. paracasei [3]; antibiotic 2 μg): 2.00 × 10^4
cell number L. rhamnosus (L. rhamnosus [4]; antibiotic 2 μg): 3.40 × 10^3
survival counting L. paracasei (L. paracasei [5]; antibiotic 2 μg/ml): 3000 ± 500
survival counting L. paracasei (L. paracasei [5]; antibiotic 5 μg/ml): 4300 ± 445
survival counting L. delbrueckii (L. delbrueckii [6]; antibiotic 2 μg/ml): 6670 ± 610
survival counting L. delbrueckii (L. delbrueckii [6]; antibiotic 5 μg/ml): 1170 ± 76
survival counting L. rhamnosus (L. rhamnosus [7]; antibiotic 2 μg/ml): 500 ± 50
survival counting L. rhamnosus (L. rhamnosus [7]; antibiotic 5 μg/ml): 370 ± 10

CC1(C)S[C@@H]2[C@H](NC(=O)[C@H](N)c3ccccc3)C(=O)N2[C@H]1C(=O)O [AMP, ampicillin]
cell number L. delbrueckii (L. delbrueckii [1]; antibiotic 2 μg): 5.58 × 10^6
MIC [2]: 3.6 µg/mL (≈ 10.3 µM)
cell number L. paracasei (L. paracasei [3]; antibiotic 2 μg): 3.29 × 10^6
cell number L. rhamnosus (L. rhamnosus [4]; antibiotic 2 μg): 6.30 × 10^4
survival counting L. paracasei (L. paracasei [5]; antibiotic 2 μg/ml): 3670 ± 350
survival counting L. paracasei (L. paracasei [5]; antibiotic 5 μg/ml): 4700 ± 409
survival counting L. delbrueckii (L. delbrueckii [6]; antibiotic 2 μg/ml): 4330 ± 260
survival counting L. rhamnosus (L. rhamnosus [7]; antibiotic 2 μg/ml): 967 ± 76
survival counting L. rhamnosus (L. rhamnosus [7]; antibiotic 5 μg/ml): 230 ± 15

CC[C@H]1OC(=O)[C@H](C)[C@@H](O[C@H]2C[C@@](C)(OC)[C@@H](O)[C@H](C)O2)[C@H](C)[C@@H](O[C@@H]2O[C@H](C)C[C@H](N(C)C)[C@H]2O)[C@](C)(OC)C[C@@H](C)C(=O)[C@H](C)[C@@H](O)[C@]1(C)O [CAM, clarithromycin]
cell number L. delbrueckii (L. delbrueckii [1]; antibiotic 1 μg): 3.45 × 10^5
MIC [2]: 1 µg/mL (≈ 1.34 µM)
cell number L. paracasei (L. paracasei [3]; antibiotic 1 μg): 3.27 × 10^5
cell number L. rhamnosus (L. rhamnosus [4]; antibiotic 1 μg): 5.10 × 10^4

CC[C@H]1OC(=O)[C@H](C)[C@@H](O[C@H]2C[C@@](C)(OC)[C@@H](O)[C@H](C)O2)[C@H](C)[C@@H](O[C@@H]2O[C@H](C)C[C@H](N(C)C)[C@H]2O)[C@](C)(O)C[C@@H](C)C(=O)[C@H](C)[C@@H](O)[C@]1(C)O [Eryc, erythromycin]
cell number L. delbrueckii (L. delbrueckii [1]; antibiotic 2 μg): 3.16 × 10^5
MIC [2]: 1 µg/mL (≈ 1.36 µM)
cell number L. paracasei (L. paracasei [3]; antibiotic 2 μg): 3.18 × 10^5
cell number L. rhamnosus (L. rhamnosus [4]; antibiotic 2 μg): 5.07 × 10^4
